Experimental data from US20250154686A1, “COMPOUND LIBRARY” (CHUGAI SEIYAKU KABUSHIKI KAISHA, priority 2021, published 2025).

Molecular target: T1, Bcl-2 protein (Recombinant Human Bcl-2 Protein) (Homo sapiens, UniProt P10415)
T1 construct: purchased Novus Biologicals NBP2-34889
Assay: AS-MS evaluation of binding of the Example 4 mixture library (1200 compounds/well) to Bcl-2, ASMS ratio (%)
Details: Example 4 mixture library
Outline: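 ASMS ratio (%) derived from reverse-phase LC/MS of three samples: Bcl-2 (20 μM) incubation after SEC, protein-free standard without SEC, and protein-free blank after SEC. Compounds were pooled at 1200/well, 20 nM each, incubated 1 h, 23 °C, dark, in Tris-HCl pH 7.4 buffer with Tween-20 and DTT.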

[1] = 1200 compounds/well, Bcl-2 protein, replicate n = 2, value belongs to the MS peak assignable to the compound

T1 sequence (P10415 whole entry): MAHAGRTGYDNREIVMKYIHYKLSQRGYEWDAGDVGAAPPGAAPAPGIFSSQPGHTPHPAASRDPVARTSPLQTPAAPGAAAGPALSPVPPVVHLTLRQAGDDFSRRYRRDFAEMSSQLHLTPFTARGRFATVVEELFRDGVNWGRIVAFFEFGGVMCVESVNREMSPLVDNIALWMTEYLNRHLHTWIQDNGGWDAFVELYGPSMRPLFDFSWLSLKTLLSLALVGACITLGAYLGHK

ASMS ratio (%) n = 1 (AS-MS, Bcl-2, replicate n = 1) [%]	ASMS ratio (%) n = 2 (AS-MS, Bcl-2, replicate n = 2) [%]	ASMS ratio (%) n = 1 (1200 compounds/well, Bcl-2 protein, replicate n = 1, value belongs to the MS peak assignable to the compound) [%]	ASMS ratio (%) n = 2 [1] [%]	Compound
0.0	0.0	–	–	CCOc1cncc(-c2ccc(CN3CCN(c4ccc(C(=O)NS(=O)(=O)CCC(F)(F)F)nn4)CC3)c3ccccc23)c1 [Compound B2N092-01, 6-[4-[[4-(5-Ethoxypyridin-3-yl)naphthalen-1-yl]methyl]piperazin-1-yl]-N-(3,3,3-trifluoropropylsulfonyl)pyridazine-3-carboxamide]
0.0	–	–	–	CCOc1cccc(-c2csc(CN3CCN(c4ccc(C(=O)NS(=O)(=O)CCC(F)(F)F)nn4)CC3)c2)c1 [Compound B2N093-01]
0.0	0.0	–	–	CCOc1cncc(-c2csc(CN3CCN(c4ccc(C(=O)NS(=O)(=O)CCC(F)(F)F)nn4)CC3)c2)c1 [Compound B2N094-01, 6-[4-[[4-(5-Ethoxypyridin-3-yl)thiophen-2-yl]methyl]piperazin-1-yl]-N-(3,3,3-trifluoropropylsulfonyl)pyridazine-3-carboxamide]
0.0	0.0	–	–	CCOc1cccc(C#Cc2ccccc2CN2CCN(c3ccc(C(=O)NS(=O)(=O)CCC(F)(F)F)nn3)CC2)c1 [Compound B2N095-01]
0.0	0.0	–	–	CCOc1cccc(-c2ccc(C(C)N3CCN(c4ccc(C(=O)NS(=O)(=O)CCC(F)(F)F)cc4)CC3)cc2)c1 (centres unmarked) [Compound B2N097-01, 4-[4-[1-[4-(3-Ethoxyphenyl)phenyl]ethyl]piperazin-1-yl]-N-(3,3,3-trifluoropropylsulfonyl)benzamide]
0.0	−0.7	–	–	CCOc1cncc(-c2ccc(C(C)N3CCN(c4ccc(C(=O)NS(=O)(=O)CCC(F)(F)F)cc4)CC3)cc2)c1 (centres unmarked) [Compound B2N098-01, 4-[4-[1-[4-(5-Ethoxypyridin-3-yl)phenyl]ethyl]piperazin-1-yl]-N-(3,3,3-trifluoropropylsulfonyl)benzamide]
0.0	0.0	–	–	CCOc1cccc(-c2ccc(C(C)N3CCN(c4ccc(C(=O)NS(=O)(=O)CCC(F)(F)F)cc4)CC3)c(F)c2)c1 (centres unmarked) [Compound B2N099-01, 4-[4-[1-[4-(3-Ethoxyphenyl)-2-fluorophenyl]ethyl]piperazin-1-yl]-N-(3,3,3-trifluoropropylsulfonyl)benzamide]
0.0	0.0	–	–	CCOc1cncc(-c2ccc(C(C)N3CCN(c4ccc(C(=O)NS(=O)(=O)CCC(F)(F)F)cc4)CC3)c(F)c2)c1 (centres unmarked) [Compound B2N100-01, 4-[4-[1-[4-(5-Ethoxypyridin-3-yl)-2-fluorophenyl]ethyl]piperazin-1-yl]-N-(3,3,3-trifluoropropylsulfonyl)benzamide]
–	–	3.9	1.5	CCOc1cncc(-c2cc(C(=O)N3CCN(c4ccc(C(=O)NS(=O)(=O)c5ccc(NCCSc6ccccc6)c([N+](=O)[O-])c5)cc4)CC3)cc(C(F)(F)F)c2)c1 [Compound B2Q040-01, 4-[4-[3-(5-Ethoxypyridin-3-yl)-5-(trifluoromethyl)benzoyl]piperazin-1-yl]-N-[3-nitro-4-(2-phenylsulfanylethylamino)phenyl]sulfonylbenzamide]
–	–	–	−15.0	CCOc1cccc(-c2cc(CN3CCN(c4ccc(C(=O)NS(=O)(=O)c5ccc(NCCSc6ccccc6)c([N+](=O)[O-])c5)nn4)CC3)cc(OC(F)(F)F)c2)c1 [Compound B2Q089-01, 6-[4-[[3-(3-Ethoxyphenyl)-5-(trifluoromethoxy)phenyl]methyl]piperazin-1-yl]-N-[3-nitro-4-(2-phenylsulfanylethylamino)phenyl]sulfonylpyridazine-3-carboxamide]
0.0	0.0	–	–	CCOc1cncc(-c2csc(C(=O)N3CCN(c4ccc(C(=O)NS(=O)(=O)c5ccc(NCCSc6ccccc6)c(C(F)(F)F)c5)nn4)CC3)c2)c1 [Compound B2R002-01, 6-[4-[4-(5-Ethoxypyridin-3-yl)thiophene-2-carbonyl]piperazin-1-yl]-N-[4-(2-phenylsulfanylethylamino)-3-(trifluoromethyl)phenyl]sulfonylpyridazine-3-carboxamide]
21.6	0.0	–	–	CCOc1cccc(-c2ccc(C(=O)N3CCN(c4ccc(C(=O)NS(=O)(=O)c5ccc(NCCSc6ccccc6)c(C(F)(F)F)c5)nn4)CC3)cc2C)c1 [Compound B2R003-01, 6-[4-[4-(3-Ethoxyphenyl)-3-methylbenzoyl]piperazin-1-yl]-N-[4-(2-phenylsulfanylethylamino)-3-(trifluoromethyl)phenyl]sulfonylpyridazine-3-carboxamide]
0.0	0.0	–	–	CCOc1cncc(-c2ccc(C(=O)N3CCN(c4ccc(C(=O)NS(=O)(=O)c5ccc(NCCSc6ccccc6)c(C(F)(F)F)c5)nn4)CC3)cc2C)c1 [Compound B2R004-01, 6-[4-[4-(5-Ethoxypyridin-3-yl)-3-methylbenzoyl]piperazin-1-yl]-N-[4-(2-phenylsulfanylethylamino)-3-(trifluoromethyl)phenyl]sulfonylpyridazine-3-carboxamide]
44.0	39.5	–	–	CCOc1cccc(-c2ccc(C(=O)N3CCN(c4ccc(C(=O)NS(=O)(=O)c5ccc(NCCSc6ccccc6)c(C(F)(F)F)c5)nn4)CC3)cc2F)c1 [Compound B2R005-01, 6-[4-[4-(3-Ethoxyphenyl)-3-fluorobenzoyl]piperazin-1-yl]-N-[4-(2-phenylsulfanylethylamino)-3-(trifluoromethyl)phenyl]sulfonylpyridazine-3-carboxamide]
0.0	–	–	–	CCOc1cccc(C#Cc2ccccc2C(=O)N2CCN(c3ccc(C(=O)NS(=O)(=O)c4ccc(NCCSc5ccccc5)c(C(F)(F)F)c4)nn3)CC2)c1 [Compound B2R007-01, 6-[4-[2-[2-(3-Ethoxyphenyl)ethynyl]benzoyl]piperazin-1-yl]-N-[4-(2-phenylsulfanylethylamino)-3-(trifluoromethyl)phenyl]sulfonylpyridazine-3-carboxamide]
0.0	19.5	–	–	CCOc1cncc(C#Cc2ccccc2C(=O)N2CCN(c3ccc(C(=O)NS(=O)(=O)c4ccc(NCCSc5ccccc5)c(C(F)(F)F)c4)nn3)CC2)c1 [Compound B2R008-01, 6-[4-[2-[2-(5-Ethoxypyridin-3-yl)ethynyl]benzoyl]piperazin-1-yl]-N-[4-(2-phenylsulfanylethylamino)-3-(trifluoromethyl)phenyl]sulfonylpyridazine-3-carboxamide]
0.0	19.5	–	–	CCOc1cccc(C#Cc2cncc(C(=O)N3CCN(c4ccc(C(=O)NS(=O)(=O)c5ccc(NCCSc6ccccc6)c(C(F)(F)F)c5)nn4)CC3)c2)c1 [Compound B2R009-01, 6-[4-[5-[2-(3-Ethoxyphenyl)ethynyl]pyridine-3-carbonyl]piperazin-1-yl]-N-[4-(2-phenylsulfanylethylamino)-3-(trifluoromethyl)phenyl]sulfonylpyridazine-3-carboxamide]
0.0	0.0	–	–	CCOc1cncc(C#Cc2cncc(C(=O)N3CCN(c4ccc(C(=O)NS(=O)(=O)c5ccc(NCCSc6ccccc6)c(C(F)(F)F)c5)nn4)CC3)c2)c1 [Compound B2R010-01, 6-[4-[5-[2-(5-Ethoxypyridin-3-yl)ethynyl]pyridine-3-carbonyl]piperazin-1-yl]-N-[4-(2-phenylsulfanylethylamino)-3-(trifluoromethyl)phenyl]sulfonylpyridazine-3-carboxamide]
17.7	−1.3	–	–	CCOc1cccc(-c2ccccc2CCC(=O)N2CCN(c3ccc(C(=O)NS(=O)(=O)c4ccc(NCCSc5ccccc5)c(C(F)(F)F)c4)nn3)CC2)c1 [Compound B2R011-01, 6-[4-[3-[2-(3-Ethoxyphenyl)phenyl]propanoyl]piperazin-1-yl]-N-[4-(2-phenylsulfanylethylamino)-3-(trifluoromethyl)phenyl]sulfonylpyridazine-3-carboxamide]
15.8	13.5	–	–	CCOc1cncc(-c2ccccc2CCC(=O)N2CCN(c3ccc(C(=O)NS(=O)(=O)c4ccc(NCCSc5ccccc5)c(C(F)(F)F)c4)nn3)CC2)c1 [Compound B2R012-01, 6-[4-[3-[2-(5-Ethoxypyridin-3-yl)phenyl]propanoyl]piperazin-1-yl]-N-[4-(2-phenylsulfanylethylamino)-3-(trifluoromethyl)phenyl]sulfonylpyridazine-3-carboxamide]
7.5	7.7	–	–	CCOc1cccc(-c2ccc(C(=O)N3CCN(c4ccc(C(=O)NS(=O)(=O)c5ccc(NCCSc6ccccc6)c(C(F)(F)F)c5)nn4)CC3)c3ccccc23)c1 [Compound B2R013-01, 6-[4-[4-(3-Ethoxyphenyl)naphthalene-1-carbonyl]piperazin-1-yl]-N-[4-(2-phenylsulfanylethylamino)-3-(trifluoromethyl)phenyl]sulfonylpyridazine-3-carboxamide]
18.6	15.1	–	–	CCOc1cncc(-c2ccc(C(=O)N3CCN(c4ccc(C(=O)NS(=O)(=O)c5ccc(NCCSc6ccccc6)c(C(F)(F)F)c5)nn4)CC3)c3ccccc23)c1 [Compound B2R014-01, 6-[4-[4-(5-Ethoxypyridin-3-yl)naphthalene-1-carbonyl]piperazin-1-yl]-N-[4-(2-phenylsulfanylethylamino)-3-(trifluoromethyl)phenyl]sulfonylpyridazine-3-carboxamide]
